Measurements published in ChEMBL document CHEMBL4507292 (2021).

Columns and labels:
[1] = target: D(1B) dopamine receptor (Homo sapiens, UniProt P21918); assay: GPCRScan assay: inhibition of D5; parameters: radioligand conc. used [nm] 2.0 – 3.0, parental cells HEKT
[2] = target: Beta-3 adrenergic receptor (Homo sapiens, UniProt P13945); assay: GPCRScan assay: inhibition of Beta3; parameters: radioligand conc. used [nm] 0.2 – 0.5, parental cells HEK Flp-In
[3] = system: Tyrosine-protein kinase ABL1 (Homo sapiens), P00519 [T315I]; details: Compound concentration 1000.0 nM
[4] = target: Aurora kinase B (Homo sapiens) (UniProt Q96GD4); details: Compound concentration 1000.0 nM
[5] = target: Calcium/calmodulin-dependent protein kinase type II subunit gamma (Homo sapiens) (UniProt Q13555); details: Compound concentration 1000.0 nM
[6] = target: Cyclin-dependent kinase-like 1 (Homo sapiens) (UniProt Q00532); details: Compound concentration 1000.0 nM
[7] = target: Cyclin-dependent kinase-like 3 (Homo sapiens) (UniProt Q8IVW4); details: Compound concentration 1000.0 nM
[8] = target: Casein kinase I isoform alpha (Homo sapiens) (UniProt P48729); details: Compound concentration 1000.0 nM
[9] = target: Casein kinase II subunit alpha (Homo sapiens) (UniProt P68400); details: Compound concentration 1000.0 nM
[10] = target: Serine/threonine-protein kinase DCLK1 (Homo sapiens) (UniProt O15075); details: Compound concentration 1000.0 nM
[11] = target: Serine/threonine-protein kinase DCLK3 (Homo sapiens) (UniProt Q9C098); details: Compound concentration 1000.0 nM
Chain of Serine/threonine-protein kinase DCLK3 (Homo sapiens) (Q9C098 whole entry): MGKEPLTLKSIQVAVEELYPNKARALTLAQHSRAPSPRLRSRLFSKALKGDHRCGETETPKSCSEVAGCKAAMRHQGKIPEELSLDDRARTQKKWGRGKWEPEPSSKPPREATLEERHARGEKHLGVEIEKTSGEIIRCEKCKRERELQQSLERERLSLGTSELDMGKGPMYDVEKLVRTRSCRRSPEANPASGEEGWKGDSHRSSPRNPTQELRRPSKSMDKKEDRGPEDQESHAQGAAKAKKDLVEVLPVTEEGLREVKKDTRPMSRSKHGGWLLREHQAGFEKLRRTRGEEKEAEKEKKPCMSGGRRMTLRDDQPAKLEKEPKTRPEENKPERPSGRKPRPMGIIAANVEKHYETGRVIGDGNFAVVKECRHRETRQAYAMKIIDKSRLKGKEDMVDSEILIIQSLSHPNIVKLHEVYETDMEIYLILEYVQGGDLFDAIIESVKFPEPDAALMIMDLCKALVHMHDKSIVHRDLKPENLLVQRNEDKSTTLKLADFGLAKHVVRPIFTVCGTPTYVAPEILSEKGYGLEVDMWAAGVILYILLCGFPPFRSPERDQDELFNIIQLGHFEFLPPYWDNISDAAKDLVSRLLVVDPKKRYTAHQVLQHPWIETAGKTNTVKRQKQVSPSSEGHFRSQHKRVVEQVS

[12] = target: Serine/threonine-protein kinase 17B (Homo sapiens) (UniProt O94768); details: Compound concentration 1000.0 nM
[13] = target: Dual specificity tyrosine-phosphorylation-regulated kinase 2 (Homo sapiens) (UniProt Q92630); details: Compound concentration 1000.0 nM
[14] = target: Ephrin type-A receptor 4 (Homo sapiens) (UniProt P54764); details: Compound concentration 1000.0 nM
[15] = system: Receptor-type tyrosine-protein kinase FLT3 (Homo sapiens), P36888 [D835H]; details: Compound concentration 1000.0 nM
[16] = target: Tyrosine-protein kinase HCK (Homo sapiens) (UniProt P08631); details: Compound concentration 1000.0 nM
[17] = target: Serine/threonine-protein kinase ICK (Homo sapiens) (UniProt Q9UPZ9); details: Compound concentration 1000.0 nM
[18] = target: Tyrosine-protein kinase JAK3 (Homo sapiens) (UniProt P52333); details: Compound concentration 1000.0 nM
[19] = system: Mast/stem cell growth factor receptor Kit (Homo sapiens), P10721 [D816H]; details: Compound concentration 1000.0 nM
[20] = target: Mitogen-activated protein kinase kinase kinase 1 (Homo sapiens) (UniProt Q13233); details: Compound concentration 1000.0 nM
Chain of Mitogen-activated protein kinase kinase kinase 1 (Homo sapiens) (Q13233 whole entry): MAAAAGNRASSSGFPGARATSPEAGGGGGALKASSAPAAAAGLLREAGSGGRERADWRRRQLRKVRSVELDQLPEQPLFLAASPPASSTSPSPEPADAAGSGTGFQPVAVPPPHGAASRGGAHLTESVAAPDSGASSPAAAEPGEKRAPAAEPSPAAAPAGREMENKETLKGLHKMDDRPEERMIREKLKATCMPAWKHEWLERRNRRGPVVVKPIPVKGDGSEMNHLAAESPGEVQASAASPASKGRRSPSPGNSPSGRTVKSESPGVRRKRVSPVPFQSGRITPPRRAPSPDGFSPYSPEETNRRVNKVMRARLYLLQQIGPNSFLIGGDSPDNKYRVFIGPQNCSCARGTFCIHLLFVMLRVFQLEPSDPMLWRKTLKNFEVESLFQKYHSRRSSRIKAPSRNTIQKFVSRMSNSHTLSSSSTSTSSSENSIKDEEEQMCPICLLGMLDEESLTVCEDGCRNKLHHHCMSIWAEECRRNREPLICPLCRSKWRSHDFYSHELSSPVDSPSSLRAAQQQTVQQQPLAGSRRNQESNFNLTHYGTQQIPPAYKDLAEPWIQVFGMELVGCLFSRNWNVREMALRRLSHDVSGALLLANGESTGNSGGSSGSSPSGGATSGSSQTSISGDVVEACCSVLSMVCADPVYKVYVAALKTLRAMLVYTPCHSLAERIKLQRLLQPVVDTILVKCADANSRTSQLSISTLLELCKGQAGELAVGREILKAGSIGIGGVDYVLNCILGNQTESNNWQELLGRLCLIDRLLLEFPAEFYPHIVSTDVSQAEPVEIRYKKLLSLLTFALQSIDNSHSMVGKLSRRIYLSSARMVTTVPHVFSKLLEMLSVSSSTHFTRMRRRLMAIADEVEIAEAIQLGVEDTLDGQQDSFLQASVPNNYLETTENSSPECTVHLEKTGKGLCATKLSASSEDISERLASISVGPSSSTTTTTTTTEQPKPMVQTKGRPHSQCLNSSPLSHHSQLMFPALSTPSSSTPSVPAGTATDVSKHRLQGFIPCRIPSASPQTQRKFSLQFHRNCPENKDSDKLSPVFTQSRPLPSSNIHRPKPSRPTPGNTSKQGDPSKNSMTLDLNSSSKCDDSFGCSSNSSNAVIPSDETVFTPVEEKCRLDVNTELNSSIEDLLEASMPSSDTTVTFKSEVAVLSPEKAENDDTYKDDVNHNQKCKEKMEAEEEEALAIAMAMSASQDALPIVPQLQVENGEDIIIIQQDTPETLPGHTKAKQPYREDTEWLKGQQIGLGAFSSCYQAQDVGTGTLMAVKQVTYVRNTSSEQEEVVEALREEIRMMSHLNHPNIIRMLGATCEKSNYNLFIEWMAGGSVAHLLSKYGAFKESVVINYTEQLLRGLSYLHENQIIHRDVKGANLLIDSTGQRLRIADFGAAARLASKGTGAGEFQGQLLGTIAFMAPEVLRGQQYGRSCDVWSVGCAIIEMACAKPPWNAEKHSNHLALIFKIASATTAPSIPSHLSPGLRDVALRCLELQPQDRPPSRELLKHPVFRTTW

[21] = target: MAP kinase-activated protein kinase 5 (Homo sapiens) (UniProt Q8IW41); details: Compound concentration 1000.0 nM
[22] = target: Dual specificity mitogen-activated protein kinase kinase 3 (Homo sapiens) (UniProt P46734); details: Compound concentration 1000.0 nM
[23] = system: Hepatocyte growth factor receptor (Homo sapiens), P08581 [Y1235D]; details: Compound concentration 1000.0 nM
[24] = target: Serine/threonine-protein kinase 3 (Homo sapiens) (UniProt Q13188); details: Compound concentration 1000.0 nM
[25] = target: Mitogen-activated protein kinase kinase kinase 14 (Homo sapiens) (UniProt Q99558); details: Compound concentration 1000.0 nM
[26] = target: Cyclin-dependent kinase 16 (Homo sapiens) (UniProt Q00536); details: Compound concentration 1000.0 nM
[27] = target: 3-phosphoinositide-dependent protein kinase 1 (Homo sapiens) (UniProt O15530); details: Compound concentration 1000.0 nM
[28] = target: Phosphorylase b kinase gamma catalytic chain, skeletal muscle/heart isoform (Homo sapiens) (UniProt Q16816); details: Compound concentration 1000.0 nM
[29] = target: Phosphatidylinositol 5-phosphate 4-kinase type-2 beta (Homo sapiens) (UniProt P78356); details: Compound concentration 1000.0 nM
[30] = target: Serine/threonine-protein kinase PLK4 (Homo sapiens) (UniProt O00444); details: Compound concentration 1000.0 nM
[31] = target: Protein kinase C theta type (Homo sapiens) (UniProt Q04759); details: Compound concentration 1000.0 nM
[32] = target: Serine/threonine-protein kinase D3 (Homo sapiens) (UniProt O94806); details: Compound concentration 1000.0 nM
[33] = target: Serine/threonine-protein kinase RIO1 (Homo sapiens) (UniProt Q9BRS2); details: Compound concentration 1000.0 nM
Chain of Serine/threonine-protein kinase RIO1 (Homo sapiens) (Q9BRS2 whole entry): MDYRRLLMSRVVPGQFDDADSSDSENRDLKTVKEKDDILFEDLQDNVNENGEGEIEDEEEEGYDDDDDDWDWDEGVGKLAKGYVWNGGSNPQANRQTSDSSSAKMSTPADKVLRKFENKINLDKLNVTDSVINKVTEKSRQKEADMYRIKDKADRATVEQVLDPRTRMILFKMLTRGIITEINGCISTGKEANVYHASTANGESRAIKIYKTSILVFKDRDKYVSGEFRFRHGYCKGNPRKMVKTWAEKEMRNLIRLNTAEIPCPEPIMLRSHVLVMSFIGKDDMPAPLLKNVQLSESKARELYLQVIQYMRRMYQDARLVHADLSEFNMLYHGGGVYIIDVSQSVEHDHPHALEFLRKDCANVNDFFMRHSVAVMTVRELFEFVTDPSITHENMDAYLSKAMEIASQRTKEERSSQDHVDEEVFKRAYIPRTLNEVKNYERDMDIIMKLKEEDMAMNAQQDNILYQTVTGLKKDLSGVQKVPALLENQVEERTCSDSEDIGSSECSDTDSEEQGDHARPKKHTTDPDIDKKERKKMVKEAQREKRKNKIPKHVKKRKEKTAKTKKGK

[34] = target: Receptor-interacting serine/threonine-protein kinase 1 (Homo sapiens) (UniProt Q13546); details: Compound concentration 1000.0 nM
[35] = target: Receptor-interacting serine/threonine-protein kinase 2 (Homo sapiens) (UniProt O43353); details: Compound concentration 1000.0 nM
[36] = target: Proto-oncogene tyrosine-protein kinase ROS (Homo sapiens) (UniProt P08922); details: Compound concentration 1000.0 nM
[37] = target: Ribosomal protein S6 kinase beta-1 (Homo sapiens) (UniProt P23443); details: Compound concentration 1000.0 nM
[38] = target: STE20-like serine/threonine-protein kinase (Homo sapiens) (UniProt Q9H2G2); details: Compound concentration 1000.0 nM
[39] = target: Serine/threonine-protein kinase 36 (Homo sapiens) (UniProt Q9NRP7); details: Compound concentration 1000.0 nM
[40] = target: TGF-beta receptor type-2 (Homo sapiens) (UniProt P37173); details: Compound concentration 1000.0 nM
[41] = target: TRAF2 and NCK-interacting protein kinase (Homo sapiens) (UniProt Q9UKE5); details: Compound concentration 1000.0 nM
[42] = target: Serine/threonine-protein kinase WNK1 (Homo sapiens) (UniProt Q9H4A3); details: Compound concentration 1000.0 nM
Chain of Serine/threonine-protein kinase WNK1 (Homo sapiens) (Q9H4A3 whole entry, looked up): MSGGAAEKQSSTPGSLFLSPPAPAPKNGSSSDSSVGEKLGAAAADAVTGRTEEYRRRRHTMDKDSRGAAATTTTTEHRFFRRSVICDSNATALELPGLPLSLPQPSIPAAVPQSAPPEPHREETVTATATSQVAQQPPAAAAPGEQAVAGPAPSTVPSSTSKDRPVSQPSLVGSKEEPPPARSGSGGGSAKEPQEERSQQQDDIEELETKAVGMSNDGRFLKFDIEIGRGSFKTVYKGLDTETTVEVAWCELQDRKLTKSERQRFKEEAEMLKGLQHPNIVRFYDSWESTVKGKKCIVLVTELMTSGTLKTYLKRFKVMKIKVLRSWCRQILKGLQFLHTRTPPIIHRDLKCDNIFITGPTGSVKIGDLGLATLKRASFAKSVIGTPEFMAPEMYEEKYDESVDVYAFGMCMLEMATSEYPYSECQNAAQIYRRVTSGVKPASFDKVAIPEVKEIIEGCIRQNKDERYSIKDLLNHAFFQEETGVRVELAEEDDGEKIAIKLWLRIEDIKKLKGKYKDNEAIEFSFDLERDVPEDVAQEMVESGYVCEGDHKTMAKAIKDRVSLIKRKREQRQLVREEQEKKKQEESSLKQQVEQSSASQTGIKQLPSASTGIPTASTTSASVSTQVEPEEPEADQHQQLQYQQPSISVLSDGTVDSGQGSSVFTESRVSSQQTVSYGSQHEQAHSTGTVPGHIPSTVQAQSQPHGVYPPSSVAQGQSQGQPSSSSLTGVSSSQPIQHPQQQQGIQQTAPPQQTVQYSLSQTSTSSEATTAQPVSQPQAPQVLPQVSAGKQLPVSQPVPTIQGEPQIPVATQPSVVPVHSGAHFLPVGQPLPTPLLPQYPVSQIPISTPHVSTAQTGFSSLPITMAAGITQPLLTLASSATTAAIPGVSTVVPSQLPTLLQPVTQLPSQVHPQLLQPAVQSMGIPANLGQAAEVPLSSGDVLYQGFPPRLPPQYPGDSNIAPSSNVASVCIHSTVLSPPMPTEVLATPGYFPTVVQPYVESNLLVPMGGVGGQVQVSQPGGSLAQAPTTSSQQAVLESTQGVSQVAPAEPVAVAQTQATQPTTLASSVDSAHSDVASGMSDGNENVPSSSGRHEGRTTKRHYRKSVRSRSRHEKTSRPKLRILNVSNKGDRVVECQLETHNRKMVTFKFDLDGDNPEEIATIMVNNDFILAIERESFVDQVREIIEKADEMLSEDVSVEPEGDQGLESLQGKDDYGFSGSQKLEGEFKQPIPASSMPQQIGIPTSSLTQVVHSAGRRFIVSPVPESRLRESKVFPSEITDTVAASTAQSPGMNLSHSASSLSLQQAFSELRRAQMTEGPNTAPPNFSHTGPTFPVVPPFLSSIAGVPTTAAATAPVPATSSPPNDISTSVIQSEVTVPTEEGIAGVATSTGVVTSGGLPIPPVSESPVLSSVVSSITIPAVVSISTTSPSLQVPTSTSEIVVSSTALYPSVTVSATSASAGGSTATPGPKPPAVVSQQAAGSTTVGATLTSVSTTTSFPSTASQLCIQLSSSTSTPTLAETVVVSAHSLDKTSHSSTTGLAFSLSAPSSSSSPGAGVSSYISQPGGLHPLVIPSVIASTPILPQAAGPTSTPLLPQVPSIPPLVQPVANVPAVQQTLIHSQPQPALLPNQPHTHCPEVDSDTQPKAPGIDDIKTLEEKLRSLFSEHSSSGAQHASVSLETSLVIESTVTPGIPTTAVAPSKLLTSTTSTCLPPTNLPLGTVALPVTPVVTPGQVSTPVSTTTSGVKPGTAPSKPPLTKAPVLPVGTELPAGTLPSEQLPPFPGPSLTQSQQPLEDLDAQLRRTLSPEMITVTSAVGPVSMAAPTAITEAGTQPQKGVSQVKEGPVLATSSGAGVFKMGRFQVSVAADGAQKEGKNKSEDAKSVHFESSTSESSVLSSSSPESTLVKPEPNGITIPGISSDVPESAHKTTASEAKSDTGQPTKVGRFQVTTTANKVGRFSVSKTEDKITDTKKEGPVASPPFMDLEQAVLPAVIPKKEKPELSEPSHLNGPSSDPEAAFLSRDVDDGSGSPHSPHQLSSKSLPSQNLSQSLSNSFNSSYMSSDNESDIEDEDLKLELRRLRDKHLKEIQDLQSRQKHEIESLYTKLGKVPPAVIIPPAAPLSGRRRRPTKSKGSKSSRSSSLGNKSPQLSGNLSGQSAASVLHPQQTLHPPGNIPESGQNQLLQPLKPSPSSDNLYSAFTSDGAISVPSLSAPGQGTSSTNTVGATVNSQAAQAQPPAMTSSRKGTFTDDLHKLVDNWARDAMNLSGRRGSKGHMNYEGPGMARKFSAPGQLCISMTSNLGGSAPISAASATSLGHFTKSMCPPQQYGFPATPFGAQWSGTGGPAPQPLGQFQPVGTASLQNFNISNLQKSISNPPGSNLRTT

[43] = target: 5-hydroxytryptamine receptor 5A (Homo sapiens) (UniProt P47898); details: Compound concentration 10.0 uM
[44] = target: Kappa-type opioid receptor (Homo sapiens, UniProt P41145); details: Compound concentration 10.0 uM

Cc1c(C(=O)O)cc(-c2ccc(C3CCNCC3)cc2)c2ccc(-c3ccc(C(F)(F)F)cc3)cc12 [PPTN-NC]
Ki [1]: 2860 nM
Ki [2]: 3260 nM
residual activity [3]: 82%
residual activity [4]: 100%
residual activity [5]: 100%
residual activity [6]: 82%
residual activity [7]: 100%
residual activity [8]: 81%
residual activity [9]: 100%
residual activity [10]: 81%
residual activity [11]: 100%
residual activity [12]: 100%
residual activity [13]: 100%
residual activity [14]: 100%
residual activity [15]: 90%
residual activity [16]: 100%
residual activity [17]: 100%
residual activity [18]: 100%
residual activity [19]: 100%
residual activity [20]: 100%
residual activity [21]: 100%
residual activity [22]: 100%
residual activity [23]: 100%
residual activity [24]: 100%
residual activity [25]: 100%
residual activity [26]: 100%
residual activity [27]: 100%
residual activity [28]: 100%
residual activity [29]: 86%
residual activity [30]: 96%
residual activity [31]: 100%
residual activity [32]: 100%
residual activity [33]: 100%
residual activity [34]: 100%
residual activity [35]: 100%
residual activity [36]: 100%
residual activity [37]: 100%
residual activity [38]: 100%
residual activity [39]: 86%
residual activity [40]: 100%
residual activity [41]: 100%
residual activity [42]: 100%
inhibition [43]: -0.81%
inhibition [44]: 27.9%

O=C(O)c1cc(-c2ccc(C3CCNCC3)cc2)c2ccc(-c3ccc(C(F)(F)F)cc3)cc2c1 [PPTN]
Ki [1]: 2820 nM
Ki [2]: 2920 nM
residual activity [3]: 74%
residual activity [4]: 100%
residual activity [5]: 100%
residual activity [6]: 93%
residual activity [7]: 94%
residual activity [8]: 83%
residual activity [9]: 100%
residual activity [10]: 84%
residual activity [11]: 100%
residual activity [12]: 100%
residual activity [13]: 100%
residual activity [14]: 100%
residual activity [15]: 81%
residual activity [16]: 100%
residual activity [17]: 100%
residual activity [18]: 100%
residual activity [19]: 100%
residual activity [20]: 100%
residual activity [21]: 100%
residual activity [22]: 100%
residual activity [23]: 100%
residual activity [24]: 100%
residual activity [25]: 100%
residual activity [26]: 100%
residual activity [27]: 100%
residual activity [28]: 100%
residual activity [29]: 91%
residual activity [30]: 80%
residual activity [31]: 100%
residual activity [32]: 100%
residual activity [33]: 100%
residual activity [34]: 100%
residual activity [35]: 100%
residual activity [36]: 100%
residual activity [37]: 100%
residual activity [38]: 100%
residual activity [39]: 100%
residual activity [40]: 100%
residual activity [41]: 100%
residual activity [42]: 100%
inhibition [43]: 4.98%
inhibition [44]: 41.7%
